From patent publication US7666611B2, “Lysophosphatidic acid receptor” (Japan Science and Technology Agency, priority 2003, dated 2010)
Entries after “also recorded” stand apart in the source; their conditions may differ.

Legend:
[1] = system: ATP receptors endogenously expressed in CHO cells; assay: ATP positive control, intracellular calcium change in CHO clones; format: cell-based; conditions: ATP 1 μM, 10 μM and 100 μM
Experimental: Over 200 lipids (Lipid Library; BIOMOL) and nucleotides were screened using CHO clones of respective receptors by monitoring changes in intracellular calcium concentrations. As positive controls for the screenings, ATP with concentrations of 1 μM, 10 μM and 100 μM were used.
CHO clones of four individual receptors such as GPR34, p2y5, p2y9 and p2y10 were seeded respectively in three 96-well plates at a density of 4×10^4 cells/well. On the following day, cells were loaded with 4 μM of Fluo-3 (calcium indicator) and incubated at 37° C. for 1 hour for incorporation of Fluo-3. Cells were then reacted with individual lipids (1 to 10 μM) contained in the Lipid Library of BIOMOL comprising over 200 kinds of lipid molecules and 17 nucleotides (1 to 100 μM) such as ATP, then time course kinetics of intracellular calcium mobilization was monitored with FLEXstation of Molecular Devices.
This enabled to confirm the relevance of the experiment.

p2y9 = biological target: T1, p2y9 (Homo sapiens, UniProt Q99677); assay: Intracellular calcium increase in four CHO clones stably expressing p2y9 (Fura-2); format: cell-based; conditions: p2y9 clones vs negative control, FIG. 15
T1 construct: expressed in transfected cells
T1 sequence (Q99677 whole entry): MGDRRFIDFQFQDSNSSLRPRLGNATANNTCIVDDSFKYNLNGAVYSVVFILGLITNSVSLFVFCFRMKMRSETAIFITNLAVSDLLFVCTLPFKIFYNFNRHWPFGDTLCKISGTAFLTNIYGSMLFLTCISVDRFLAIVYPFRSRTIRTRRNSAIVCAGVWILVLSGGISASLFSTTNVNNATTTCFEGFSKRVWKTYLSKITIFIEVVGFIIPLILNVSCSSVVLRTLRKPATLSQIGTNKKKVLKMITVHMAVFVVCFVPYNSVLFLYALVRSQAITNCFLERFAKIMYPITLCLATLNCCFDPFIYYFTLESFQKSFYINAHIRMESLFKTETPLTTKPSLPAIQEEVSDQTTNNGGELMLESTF
Experimental: Then the investigation with respect to CHO clone has been carried out. Experiment of calcium incorporation was conducted in four independent CHO clones, #01, #09, #15 and #20, stably expressing p2y9. […] As a negative control, CHO cells which acquired neomycin resistance by transfected only with pCXN2.1 vector were used.
Four types of CHO clones, #01, #09, #15 and #20, stably expressing p2y9 were incubated for 24 hours in the medium of Ham's F-12 supplemented with 0.1% BSA in replacement of Ham's F-12 supplemented with 10% fetal bovine serum. The cells were then suspended in HEPES-Tyrode's buffer (140 mM NaCl, 2.7 mM KCl, 1 mM CaCl2, 12 mM NaHCO3, 5.6 mM D-glucose, 0.49 mM MgCl2, 0.37 mM NaH2PO4, and 25 mM HEPES-NaOH (pH 7.4)) containing 3 μM Fura-2 (calcium indicator) and 0.01% Cremophor EL. Cells were incubated at 37° C. for 1 hour for incorporation of Fura-2. Cells were then resuspended in HEPES-Tyrode's buffer in order to achieve a cell density of 1×10^6 cells/ml. The changes in intracellular concentrations with addition of various concentrations of LPAs were monitored by using CAF-100 spectrofluorometer (Jasco, Tokyo, Japan). As a negative control, CHO cells which acquired neomycin resistance by transfected only with pCXN2.1 vector were used.

Nc1ncnc2c1ncn2[C@@H]1O[C@H](COP(=O)(O)OP(=O)(O)OP(=O)(O)O)[C@@H](O)[C@H]1O [ATP]
change in intracellular calcium concentration [1]: remarkable change in intracellular calcium concentration beyond the measurable range; also recorded: changes in calcium concentration beyond the measurable range | increase in intracellular calcium concentration (p2y9; ATP 10 μM): no significant difference; also recorded: no significant changes

platelet activating factor [PAF]
increase in intracellular calcium concentration (p2y9; PAF 1 μM): no significant difference; also recorded: no significant changes

thrombin
increase in intracellular calcium concentration (p2y9; thrombin 0.1 NIH units/ml): no significant difference; also recorded: no significant changes
